# Reference: patent US7208282B2 (priority 2001, dated 2007)
# Where “and” joins values, the source holds several entries; their conditions need not be identical. Equal entries are not always repeated.
# Columns and labels:
# non-transfected cells = assay: intracellular calcium (fura-2) in non-transfected HEK293T cells; format: cell-based, human; conditions: data not shown
# Excerpt: The entire coding sequence of rhesus MCH-2R was cloned into BamHI-NotI site of pEF1/[…] C plasmid vector (Invitrogen). The resultant construct was transfected into HEK293T cells using LipofectAmine PLUS (Life Technologies, Rockville, Md.) according to the manufacture's instructions. Human embryonic kidney cells constitutively expressing SV40 large T antigen (HEK-293T) were maintained in Dulbecco's modified Eagle medium (Life Technologies) supplemented with 10% fetal bovine serum, 100 units/ml penicillin-G and 100 μg/ml streptomycin at 37° C. with 5% CO2 in a humidified atmosphere. […] The cells were suspended with the buffer containing 2 μM fura-2 acetoxymethylester (Dojin, Kumamoto, Japan) into the cell density of 1.0×10^7 cells/ml and incubated at 37° C. for 60 minutes with gently shaking. The fura-2-loaded cells were washed twice with the buffer and re-suspended with the buffer to 1.0×10^6 cells/ml. 0.5 ml of the resultant suspension was stirred continuously at 37° C. in a glass cuvette during the measurement. […] Data were analyzed using the software GraphPad Prism Version 3.0 (GraphPad Software, Inc., San Diego, Calif., USA).
# ferret MCH-2R [1] = assay: membrane radioligand binding assay, transfected COS-7 cells, ferret MCH-2R; conditions: COS-7 membranes
# ferret MCH-2R, sequence (as listed by the source): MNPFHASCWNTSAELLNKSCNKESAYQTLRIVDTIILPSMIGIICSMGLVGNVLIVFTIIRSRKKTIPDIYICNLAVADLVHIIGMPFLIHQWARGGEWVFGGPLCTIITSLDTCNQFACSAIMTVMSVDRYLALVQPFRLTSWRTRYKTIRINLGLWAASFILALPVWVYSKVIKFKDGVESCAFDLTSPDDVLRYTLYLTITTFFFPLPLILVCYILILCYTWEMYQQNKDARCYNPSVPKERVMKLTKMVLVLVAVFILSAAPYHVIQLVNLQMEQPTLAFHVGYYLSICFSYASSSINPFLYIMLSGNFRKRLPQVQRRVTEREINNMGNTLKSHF
# Method: Membrane binding assays were performed on transiently-transfected COS-7 cells using human or ferret MCH-2R in the plasmid vector pCI-neo (Promega, Madison, Wis.), COS-7 cells were cultured in Dulbecco's modified Eagle medium (Gibco BRL, Rockville, Md.) with 10% heat inactivated fetal calf serum.
# A suspension of 7×10^6 COS-7 cells were transfected with 20 μg of pCI-neo/MCH-2R plasmid by electroporation. (Strader, et al., 1987. Proc. Natl. Acad. Sci. USA 84, 4384–4388). Cells were harvested after 60–72 hours. Membranes were prepared from transient and stable transfectants by hypotonic lysis, frozen in liquid nitrogen, and stored at −80° C. (MacNeil, et al., 1994. Biochem. Biophys. Res. Commun. 198, 328–334.)
# A binding assay was set up in 96 well plates. Total volume per binding assay point was 200 μL. […] Dose response curves were from 10 μM in 5 fold or 3-fold dilution series for 11 points. The mixture was shaken for 5 minutes on a platform shaker, and incubated at room temperature for 1 hour. Filter plates were presoaked in 1% PEI. The binding reaction was harvested onto filters using Packard Filtermate harvester (Meriden, Conn.). The filters were then washed in 50 mM Tris pH 7.4, 10 mM MgCl2, 2 mM EDTA, 0.04% Tween 20, 6–8 times per plate. […] 30 μL microscintillant was added per well and counted for 1.5–3 minutes in inverted format on Packard TopCount. […]
# ferret MCH-2R [2] = assay: aequorin bioluminescence functional assay, ferret MCH-2R; format: cell-based; conditions: aequorin HEK-293 cells, read-out: Function (EC50)
# Excerpt: The aequorin bioluminescence assay is a reliable test for identifying G-protein-coupled receptors which couple through the G protein subunit family consisting of Gq and G11 which leads to the activation of phospholipase C, mobilization of intracellular calcium, and activation of protein kinase C. (Ungrin, et al., Anal. Biochem. 1999. 272:34–42.)
# For expression studies, HEK-293 cells stably expressing the aequorin reporter protein were transiently transfected with MCH-2R human or ferret expression plasmid or stable cell lines were derived (human MCH-2R). The assay was performed using a Luminoscan RT luminometer (Labsystems Inc., Gaithersburg, Md.).
# 293AEQ17/Aequorin cells (Button, et al., 1993. Cell Calcium 14, 663–671), were cultured for 72 hours and the apo-aequorin in the cells was charged for 1 hour with coelenterazine (10 μM) under reducing conditions (300 μM reduced glutathione) in ECB buffer (140 mM NaCl, 20 mM KCl, 20 mM HEPES-NaOH, pH 7.4, 5 mM glucose, 1 mM MgCl2, 1 mM CaCl2, 0.1 mg/mL bovine serum albumin). […] 100 μL of cell suspension (corresponding to 5×10^4 cells) was then injected into the test plate containing ligands, and the integrated light emission was recorded over 30 seconds, in 0.5-second units. 20 μL of lysis buffer (0.1% final Triton X-100 concentration) was then injected and the integrated light emission recorded over 10 seconds, in 0.5-second units. […]
# mock transfected cells = assay: radioligand binding to mock transfected HEK293T cells; set-up: species or system human; conditions: for specific binding into mock transfected cells: in words
# Method: HEK293T cells were seeded into 24-well culture plates coated with poly-D-Lys at 1×10^5 cells/well and were cultured over-night. […] Forty-eight hours after transfection, the transfected monolayer cells were rinsed with the assay buffer (Hanks' balanced salt solution containing 20 mM HEPES, 0.2% BSA and 100 μg/ml bacitracin, pH 7.4). The cells were then incubated in 250 μl/well of the same buffer with [^125I]-MCH (100 pM, NEN Life Science Products, Boston, Mass.) or [^125I]-[Phe^13, Tyr^19]-MCH (100 pM, NEN Life Science Products) for 30 minutes at 37° C. After the incubation, the cells were washed three times with the ice cold assay buffer and lysed with 500 μl/well of 2 M NaOH. The lysates were transferred into test tubes and the cell-bound radioactivity was measured by a COBLA Quantum γ-counter (Packard Instrument, Meriden, Conn.).
# rhesus MCH-2R = molecular target: T1, rhesus MCH-2R (Macaca mulatta, UniProt Q8MJ88); assay: radioligand binding to adherent HEK293T cells expressing rhesus MCH-2R; set-up: species or system rhesus monkey
# T1 construct: expressed in transfected cells; host or cells: HEK293T
# T1 sequence (Q8MJ88 whole entry): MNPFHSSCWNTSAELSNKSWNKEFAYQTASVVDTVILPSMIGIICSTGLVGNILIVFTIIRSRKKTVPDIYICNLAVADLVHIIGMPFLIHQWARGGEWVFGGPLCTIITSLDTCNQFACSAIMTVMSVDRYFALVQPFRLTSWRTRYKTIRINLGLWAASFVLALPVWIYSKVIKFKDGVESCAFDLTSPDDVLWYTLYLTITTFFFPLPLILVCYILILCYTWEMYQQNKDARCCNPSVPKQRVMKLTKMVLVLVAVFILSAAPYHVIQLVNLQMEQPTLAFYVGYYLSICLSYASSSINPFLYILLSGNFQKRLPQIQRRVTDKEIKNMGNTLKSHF
# Method: HEK293T cells were seeded into 24-well culture plates coated with poly-D-Lys at 1×10^5 cells/well and were cultured over-night. The adherent cells were transfected with pEF1/V5-HisC/rhesus MCH-2R plasmid (see Example 2). Forty-eight hours after transfection, the transfected monolayer cells were rinsed with the assay buffer (Hanks' balanced salt solution containing 20 mM HEPES, 0.2% BSA and 100 μg/ml bacitracin, pH 7.4). The cells were then incubated in 250 μl/well of the same buffer with [^125I]-MCH (100 pM, NEN Life Science Products, Boston, Mass.) or [^125I]-[Phe^13, Tyr^19]-MCH (100 pM, NEN Life Science Products) for 30 minutes at 37° C. After the incubation, the cells were washed three times with the ice cold assay buffer and lysed with 500 μl/well of 2 M NaOH. The lysates were transferred into test tubes and the cell-bound radioactivity was measured by a COBLA Quantum γ-counter (Packard Instrument, Meriden, Conn.).
# [3] = 100 pM radioligand, Mock transfected cells
IC50 (ferret MCH-2R [1]),EC50 (ferret MCH-2R [2]),"[125I]-[Phe13, Tyr19]-MCH binding, Nonspecific binding (rhesus MCH-2R; 100 pM radioligand, in the presence of 1 μM cold [Phe13, Tyr19]-MCH, rhesus MCH-2R transfected cells)",binding to HEK293T cells expressing rhesus MCH-2R (rhesus MCH-2R; in words),Substance,[Ca2+]i increase in non-transfected cells (non-transfected cells),"[125I]-MCH binding, Total binding (mock transfected cells; [3])","[125I]-MCH binding, Nonspecific binding (mock transfected cells; 100 pM radioligand, in the presence of 1 μM cold MCH, Mock transfected cells)",specific binding into mock transfected cells (mock transfected cells),"[125I]-[Phe13, Tyr19]-MCH binding, Total binding (rhesus MCH-2R; 100 pM radioligand, 30 minutes at 37° C., rhesus MCH-2R transfected cells)","[125I]-[Phe13, Tyr19]-MCH binding, Total binding (mock transfected cells; [3])","[125I]-[Phe13, Tyr19]-MCH binding, Nonspecific binding (mock transfected cells; 100 pM radioligand, in the presence of 1 μM cold [Phe13, Tyr19]-MCH, Mock transfected cells)"
55 nM,69 nM,,,Melanin-concentrating hormone [MCH],failed to induce a detectable [Ca^2+]i increase,,,,,,
,,,,[^125I]-MCH,,209.9 cpm and 215.8 cpm and 239.8 cpm,172.0 cpm and 180.9 cpm and 184.1 cpm,not observed,,,
,,567.4 cpm and 717.0 cpm and 598.0 cpm,good windows,"[^125I]-[Phe^13, Tyr^19]-MCH",,,,not observed,18031.2 cpm and 18749.0 cpm and 17985.4 cpm,708.9 cpm and 663.3 cpm and 771.5 cpm,539.7 cpm and 537.7 cpm and 557.8 cpm
